According to patent publication US9051335B2, “Antipruritic agent for pruritus caused by multiple sclerosis” (TORAY INDUSTRIES, INC., priority 2005, dated 2015):

Tested on: MRL/lpr mice
Assay: Spontaneous scratching behavior in MRL/lpr mice (antipruritic effect)
Assay type: in vivo
Conditions: 20 weeks old female MRL/lpr mice, n=8
Method: [drawing 8] which is an κ opioid receptor agonist compound against pruritus was evaluated. The evaluation was carried out over 5 days dividedly. On Day 1, sterilized distilled water was orally administered 30 minutes before the beginning of the recording of the scratching behavior, and the number of scratching behavior when the mouse received a solvent was counted for 60 minutes. On Day 2, Compound 1 was orally administered to the same mouse 30 minutes before the beginning of the recording of the scratching behavior at a dose of 3 μg/kg, and the number of scratching behavior was counted for 60 minutes. On Days 3 to 5, the experiments were carried out in the same schedule as in Day 2 increasing the dose of Compound 1 such that the doses of Compound 1 on Day 3, Day 4 and Day 5 were 10 μg/kg, 30 μg/kg and 100 μg/kg, respectively (n=8). […] The number of scratching behavior was counted visually by replaying the video tape. The number of scratching behavior was counted such that the series of behavior from raising the hind leg for starting the scratching to putting down the hind leg were counted as one scratching behavior. […]

Compound: CN(C(=O)/C=C/c1ccoc1)[C@@H]1CC[C@@]2(O)[C@H]3Cc4ccc(O)c5c4[C@@]2(CCN3CC2CC2)[C@H]1O5.Cl [Compound 1, (−)-17-cyclopropylmethyl-4,5α-epoxy-3,14β-dihydroxy-6β-(N-methyl-trans-3-(3-furyl)acrylamido)morphinan hydrochloric acid salt]
- number of scratching behavior (60 minutes) versus control group at the time of administration of the solvent (30 μg/kg orally 30 minutes before recording, significant at statistical level of 5%): decreased
- number of scratching behavior (60 minutes) versus control group at the time of administration of the solvent (100 μg/kg orally 30 minutes before recording, significant at statistical level of 1%): decreased
